According to patent publication US6011060A, “Chiral phenyldihydrofuranones as PDE-IV inhibitors” (Schering Aktiengesellschaft, priority 1996, dated 2000):
pKi: −log10 of the molar value.

Target: radiolabeled Rolipram of rat brain homogenates
Test: displacement of radiolabeled Rolipram in rat brain homogenates, in vitro (Eur. J. Pharmacol. 127, 105-115 (1986))
Type: binding
Conditions: 3H-rolipram tracer, IC50 converted: Ki = IC50/[1+(L/KD)]
Protocol: The action on the central nervous system is determined in vitro by measuring the displacement capacity of radiolabeled Rolipram of rat brain homogenates (Eur. J. Pharmacol., Vol. 127, 105-115 (1986)). The IC50 values (that concentration in which 50% inhibiting action occurs) were converted into inhibition constant Ki, which is calculated according to the formula below: […]
in which L means the concentration of the radioactive tracer and KD means the dissociation constant of the ^3 H-rolipram bond, which is determined separately.

| pKi | SMILES |
| --- | --- |
| 9.42 | COc1ccc(C2(C)CCC(=O)O2)cc1OC1CCC1 (racemic) [cyclobutyl, Racemate, (R,S)-5-(3-cyclobutyloxy-4-methoxyphenyl)-5-methyl-dihydro-2-furanone] |
| 9.30 | COc1ccc(C2(C)CCC(=O)O2)cc1OC1CCCC1 (racemic) [cyclopentyl, Racemate, (R,S)-5-(3-cyclopentyloxy-4-methoxyphenyl)-5-methyl-dihydro-2-furanone] |
| 9.68 | COc1ccc(C2(C)CCC(=O)O2)cc1OCC1CC1 (racemic) [cyclopropylmethyl, Racemate, (R,S)-5-(3-cyclopropylmethoxy-4-methoxyphenyl)-5-methyl-dihydro-2-furanone] |
| 9.32 | COc1ccc(C2(C)CCC(=O)O2)cc1OCC(C)C (racemic) [isobutyl, Racemate, (R,S)-5-(3-isobutyloxy-4-methoxyphenyl)-5-methyl-dihydro-2-furanone] |
| 9.13 | CCCOc1cc(C2(C)CCC(=O)O2)ccc1OC (racemic) [propyl, Racemate, (R,S)-5-(4-methoxy-3-propoxyphenyl)-5-methyl-dihydro-2-furanone] |
| 8.72 | COc1ccc([C@@]2(C)CCC(=O)O2)cc1OC1CCC1 [cyclobutyl, (R)-(+)-enantiomer, (R)-(+)-5-(3-cyclobutyloxy-4-methoxyphenyl)-5-methyl-dihydro-2-furanone] |
| 9.70 | COc1ccc([C@]2(C)CCC(=O)O2)cc1OC1CCC1 [cyclobutyl, (S)-(-)-enantiomer, (S)-(-)-5-(3-cyclobutyloxy-4-methoxyphenyl)-5-methyl-dihydro-2-furanone] |
| 8.55 | COc1ccc([C@@]2(C)CCC(=O)O2)cc1OC1CCCC1 [cyclopentyl, (R)-(+)-enantiomer, (R)-(+)-5-(3-cyclopentyloxy-4-methoxyphenyl)-5-methyl-dihydro-2-furanone] |
| 9.55 | COc1ccc([C@]2(C)CCC(=O)O2)cc1OC1CCCC1 [cyclopentyl, (S)-(-)-enantiomer, (S)-(-)-5-(3-cyclopentyloxy-4-methoxyphenyl)-5-methyl-dihydro-2-furanone] |
| 8.66 | COc1ccc([C@@]2(C)CCC(=O)O2)cc1OCC1CC1 [cyclopropylmethyl, (R)-(+)-enantiomer, (R)-(+)-5-(3-cyclopropylmethoxy-4-methoxyphenyl)-5-methyl-dihydro-2-furanone] |
| 9.89 | COc1ccc([C@]2(C)CCC(=O)O2)cc1OCC1CC1 [cyclopropylmethyl, (S)-(-)-enantiomer, (S)-(-)-5-(3-cyclopropylmethoxy-4-methoxyphenyl)-5-methyl-dihydro-2-furanone] |
| 8.64 | COc1ccc([C@@]2(C)CCC(=O)O2)cc1OCC(C)C [isobutyl, (R)-(+)-enantiomer, (R)-(+)-5-(3-isobutyloxy-4-methoxyphenyl)-5-methyl-dihydro-2-furanone] |
| 9.60 | COc1ccc([C@]2(C)CCC(=O)O2)cc1OCC(C)C [isobutyl, (S)-(-)-enantiomer, (S)-(-)-5-(3-isobutyloxy-4-methoxyphenyl)-5-methyl-dihydro-2-furanone] |
| 8.14 | CCCOc1cc([C@@]2(C)CCC(=O)O2)ccc1OC [propyl, (R)-(+)-enantiomer, (R)-(+)-5-(4-methoxy-3-propoxyphenyl)-5-methyl-dihydro-2-furanone] |
| 9.33 | CCCOc1cc([C@]2(C)CCC(=O)O2)ccc1OC [propyl, (S)-(-)-enantiomer, (S)-(-)-5-(4-methoxy-3-propoxyphenyl)-5-methyl-dihydro-2-furanone] |
